Measurements: US20240316088A1, “Solid composition suitable as a nutritional composition or supplement for animals that suffer from brain related disorders, decline or diseases” (N.V. Nutricia, priority 2022, published 2024)

Experiment: Hygroscopicity as observed during formulation and processing
Assay type: physicochemical

Row | Structure (SMILES) | hygroscopicity (in words)
1 | C[N+](C)(C)CCO.[Cl-] [Choline chloride] | very hygroscopic
2 | C[N+](C)(C)CCO.O=C([O-])C(O)C(O)C(=O)O (centres unmarked) [Choline bitartrate] | much reduced hygroscopicity
